From patent US20030212123A1, “COX-2 selective carprofen for treating pain and inflammation in dogs” (Pfizer Inc., priority 1997, published 2003)
Where two headings read alike, the source gives them in different places.

Experiments:
COX-2 = COX-2 (Canis lupus familiaris, UniProt Q8SPQ9); assay: in vivo; details: for PGE2 Pg/mL/Well: group average; for inhibition at 2 mg/kg / inhibition at 10 mg/kg: dog, po
Protocol: A zero-hour blood sample was collected from all dogs in the study prior to dosing, followed by 1-, 3-, and 6-hour post-dose blood sample collections. […] Test tubes used as controls contained vehicle and were unstimulated by the addition of any agent. A 500 μL sample of blood was added to each of the above-described test tubes, after which they were incubated at 37° C. for one hr in the case of the calcium ionophore-containing test tubes, and overnight in the case of the LPS-containing test tubes. After incubation, 10 μL of EDTA was added to give a final concentration of 0.3%, in order to prevent coagulation of the plasma which sometimes occurs after thawing frozen plasma samples. The incubated samples were centrifuged at 4° C. and the resulting plasma sample of ˜200 μL was collected and stored at −20° C. in polypropylene 96-well plates. In order to determine endpoints for this study, enzyme immunoassay (EIA) kits available from Cayman were used to measure production of TXB2 and PGE2, utilizing the principle of competitive binding of tracer to antibody and endpoint determination by colorimetry.
The data is expressed as treatment group averages in pg/mL of TXB2 and PGE2 produced per sample. Plasma dilution was not factored in said data values.

canine COX-1 = molecular target: T1, canine COX-1 (Canis lupus familiaris, UniProt Q8HZR1); assay: Canine COX-1 activity: washed canine platelets, A23187-stimulated TXB2 by EIA; type: cell-based, dog; details: results of repeated tests averaged
T1 construct: from tissue; host or cells: washed platelets from donor dog blood
T1 sequence (Q8HZR1 28-603): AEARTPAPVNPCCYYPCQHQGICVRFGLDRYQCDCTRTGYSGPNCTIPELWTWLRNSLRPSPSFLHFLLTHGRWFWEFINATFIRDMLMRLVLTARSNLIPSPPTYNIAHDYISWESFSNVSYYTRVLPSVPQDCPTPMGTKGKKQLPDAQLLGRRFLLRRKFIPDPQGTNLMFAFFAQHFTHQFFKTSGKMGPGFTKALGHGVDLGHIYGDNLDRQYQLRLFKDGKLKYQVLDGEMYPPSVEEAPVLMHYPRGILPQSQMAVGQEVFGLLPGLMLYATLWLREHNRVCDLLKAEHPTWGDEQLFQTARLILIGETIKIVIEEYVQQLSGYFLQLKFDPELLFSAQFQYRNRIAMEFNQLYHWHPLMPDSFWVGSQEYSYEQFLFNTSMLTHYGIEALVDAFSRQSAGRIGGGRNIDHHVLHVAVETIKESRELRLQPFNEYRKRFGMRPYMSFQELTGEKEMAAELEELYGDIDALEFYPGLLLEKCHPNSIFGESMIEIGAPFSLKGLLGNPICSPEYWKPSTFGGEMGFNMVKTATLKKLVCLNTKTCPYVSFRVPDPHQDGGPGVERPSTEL
Protocol: Protocol for Evaluation of Canine COX-1 Activity
Test drug compounds were solubilized and diluted the day before the assay was to be conducted with 0.1 mL of DMSO/9.9 mL of Hank's balanced salts solution (HBSS), and stored overnight at 4° C. On the day that the assay was carried out, citrated blood was drawn from a donor dog, centrifuged at 190×g for 25 min at room temperature, and the resulting platelet-rich plasma was then transferred to a new tube for further procedures. The platelets were washed by centrifuging at 1500×g for 10 min at room temperature. The platelets were washed with platelet buffer comprising Hank's buffer (Ca free) with 0.2% bovine serum albumin (BSA) and 20 mM HEPES. […] Then, 100 μl of canine washed platelets were added and the samples were incubated at 37° C. for 15 min, after which the reaction was stopped by adding 20 μl of 77 mM EDTA. The plates were then centrifuged at 2000×g for 10 min at […], after which 50 μl of supernatant was assayed for thromboxane B2 (TXB2) by enzyme-immunoassay (EIA).

[1] = at equipotent anti-inflammatory activity with indomethacin, Holtsinger et al.; cited from earlier work
[2] = molecular target: T2, COX-1 (derived from bovine aortic endothelial cells) (Bos taurus, UniProt O62664); details: cited from earlier work
T2 construct: COX-1 (derived from bovine aortic endothelial cells); host or cells: bovine aortic endothelial cells (endogenous)
T2 sequence (O62664 25-600): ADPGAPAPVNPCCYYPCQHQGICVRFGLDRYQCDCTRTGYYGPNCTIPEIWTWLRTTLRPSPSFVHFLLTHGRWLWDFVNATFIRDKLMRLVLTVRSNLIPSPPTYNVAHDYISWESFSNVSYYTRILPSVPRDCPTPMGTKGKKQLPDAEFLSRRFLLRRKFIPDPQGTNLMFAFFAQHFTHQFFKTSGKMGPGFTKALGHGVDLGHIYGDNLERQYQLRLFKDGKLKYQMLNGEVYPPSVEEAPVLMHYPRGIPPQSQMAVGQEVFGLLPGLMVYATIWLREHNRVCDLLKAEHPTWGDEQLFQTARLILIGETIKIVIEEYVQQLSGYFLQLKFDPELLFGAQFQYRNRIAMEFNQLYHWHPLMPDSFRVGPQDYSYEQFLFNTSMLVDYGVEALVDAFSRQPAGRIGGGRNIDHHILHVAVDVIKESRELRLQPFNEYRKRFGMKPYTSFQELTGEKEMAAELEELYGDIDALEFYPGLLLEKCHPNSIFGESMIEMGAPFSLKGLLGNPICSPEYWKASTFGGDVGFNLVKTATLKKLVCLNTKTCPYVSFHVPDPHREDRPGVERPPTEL

[3] = dog, in vivo, po
Protocol: Following oral dosing to dogs of an immediate release carprofen formulation at a dose of 2 mg/lb, plasma carprofen concentrations were above 10 μg/mL for approximately 10.5 hr. In accordance with the present invention, 2 mg/lb/day is within the range of preferred doses of carprofen.
Immediate release carprofen dosage forms containing doses of 1.8, 1.6, and 1.4 mg/lb maintain a plasma carprofen concentration above 10 μg/mL for 9.5 hrs, 8.5 hrs, and 7.5 hrs, respectively.

COX-2, sequence (Q8SPQ9 18-604): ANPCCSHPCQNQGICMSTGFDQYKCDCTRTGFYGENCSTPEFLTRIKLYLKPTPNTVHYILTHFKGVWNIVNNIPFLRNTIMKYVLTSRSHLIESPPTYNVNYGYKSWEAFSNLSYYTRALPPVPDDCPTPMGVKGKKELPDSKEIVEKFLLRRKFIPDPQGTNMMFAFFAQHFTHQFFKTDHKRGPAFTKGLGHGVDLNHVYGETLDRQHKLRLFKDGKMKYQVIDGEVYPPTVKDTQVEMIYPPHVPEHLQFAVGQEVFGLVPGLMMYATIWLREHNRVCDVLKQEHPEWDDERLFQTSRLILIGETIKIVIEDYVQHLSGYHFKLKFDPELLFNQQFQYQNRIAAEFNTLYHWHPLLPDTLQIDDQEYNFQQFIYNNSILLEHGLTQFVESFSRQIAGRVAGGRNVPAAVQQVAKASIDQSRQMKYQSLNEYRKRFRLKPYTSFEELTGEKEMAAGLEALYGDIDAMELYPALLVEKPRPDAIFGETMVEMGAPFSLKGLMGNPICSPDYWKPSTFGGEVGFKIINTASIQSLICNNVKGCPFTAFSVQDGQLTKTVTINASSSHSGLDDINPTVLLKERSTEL

With CC(C(=O)O)c1ccc2c(c1)[nH]c1ccc(Cl)cc12 (racemic) [Carprofen (rac.), 6-chloro-α-methyl-9H-carbazole-2-acetic acid] the “PGE2 Pg/mL/Well” value (COX-2; 2 mg/kg PO capsule, 0-hour (pre-dose)) was 511 Pg/mL/Well, the “PGE2 Pg/mL/Well” value (COX-2; 2 mg/kg PO capsule, 1-hour post-dose) was 33 Pg/mL/Well and the “PGE2 Pg/mL/Well” value (COX-2; 2 mg/kg PO capsule, 3-hour post-dose) was 98 Pg/mL/Well. For the same molecule, the “PGE2 Pg/mL/Well” value (COX-2; 2 mg/kg PO capsule, 6-hour post-dose) was 190 Pg/mL/Well, the “PGE2 Pg/mL/Well” value (COX-2; 10 mg/kg PO capsule, 0-hour (pre-dose)) was 336 Pg/mL/Well and the “PGE2 Pg/mL/Well” value (COX-2; 10 mg/kg PO capsule, 1-hour post-dose) was 19 Pg/mL/Well. For the same molecule, the “PGE2 Pg/mL/Well” value (COX-2; 10 mg/kg PO capsule, 3-hour post-dose) was 12 Pg/mL/Well, the “PGE2 Pg/mL/Well” value (COX-2; 10 mg/kg PO capsule, 6-hour post-dose) was 12 Pg/mL/Well and the inhibition at 2 mg/kg (COX-2; read-out: COX-2 activity Percent Inhibition, 2 mg/kg PO capsule, 1-hour, based on zero hour value) was 94%. It also gave an inhibition at 2 mg/kg (COX-2; read-out: COX-2 activity Percent Inhibition, 2 mg/kg PO capsule, 3-hour, based on zero hour value) of 81%, an inhibition at 2 mg/kg (COX-2; read-out: COX-2 activity Percent Inhibition, 2 mg/kg PO capsule, 6-hour, based on zero hour value) of 63% and an inhibition at 10 mg/kg (COX-2; read-out: COX-2 activity Percent Inhibition, 10 mg/kg PO capsule, 1-hour, based on zero hour value) of 94%. The inhibition at 10 mg/kg (COX-2; read-out: COX-2 activity Percent Inhibition, 10 mg/kg PO capsule, 3-hour, based on zero hour value) was 96%, the inhibition at 10 mg/kg (COX-2; read-out: COX-2 activity Percent Inhibition, 10 mg/kg PO capsule, 6-hour, based on zero hour value) was 96% and the IC50 (canine COX-1) was 13.2 µM. The “ulcerogenic potential, times less than indomethacin” value [1] was 16 times, the IC50 ([2]; as shown by Battistini et al., read-out: IC50 (μM) COX-1) was 11 µM and the IC50 ([2]; n=9, bovine aortic endothelial cells, read-out: IC50 (μg/mL) COX-1 (converted)) was 11 µM. For the same molecule, the “time plasma carprofen concentrations were above 10 μg/mL” value [3] was “approximately 10.5 hr”.
